Source: the C3SDB collision cross section collection
Several values for one entry are separate records, joined by “and”; a condition that tells them apart may be missing. Identical values can stand only once.

conditions: [M+H]+; instrument: TW; Major Mix IMS/Tof Calibration Kit (Waters)

In order of falling “collision cross section (N2)” value:
1. CCc1nn(CCCN2CCN(c3cccc(Cl)c3)CC2)c(=O)n1CCOc1ccccc1 [Nefazodone]  211.7 Å²
2. Cc1cccc(CN2CCN(C(c3ccccc3)c3ccc(Cl)cc3)CC2)c1 (stereo not given) [Meclozine]  208.2 Å²
3. Cc1nc2n(c(=O)c1CCN1CCC(c3noc4cc(F)ccc34)CC1)CCCC2 [Risperidone]  205.5 Å²
4. OCc1cc([C@@H](O)CNCCCCCCOCCCCc2ccccc2)ccc1O [Salmeterol]  202.9 Å²
5. CCOC(=O)[C@H](CCc1ccccc1)N[C@@H](C)C(=O)N1[C@H](C(=O)O)C[C@@H]2CCC[C@@H]21 [Ramipril]  197 Å²
6. CS(=O)(=O)c1ccc2c(c1)N(CCCN1CCC(C(N)=O)CC1)c1ccccc1S2 [Metopimazine]  196.3 Å²
7. OCCN1CCN(CCCN2c3ccccc3Sc3ccc(Cl)cc32)CC1 [Perphenazine]  193.2 Å²
8. COc1cc2nc(N3CCN(C(=O)c4ccco4)CC3)nc(N)c2cc1OC [Prazosin]  192.7 Å²
9. CC1=C(CC(=O)O)c2cc(F)ccc2/C1=C\c1ccc(S(C)=O)cc1 (stereo not given) [Sulindac]  192.6 Å²
10. O=C1Cc2cc(CCN3CCN(c4nsc5ccccc45)CC3)c(Cl)cc2N1 [Ziprasidone]  192.6 Å²
11. CCC(=O)NS(=O)(=O)c1ccc(-c2c(-c3ccccc3)noc2C)cc1 [Parecoxib]  189.2 Å²
12. C[C@]12Cc3cn[nH]c3C[C@@H]1CC[C@@H]1[C@@H]2CC[C@@]2(C)[C@H]1CC[C@]2(C)O [Stanozolol]  188.1 Å²
13. CN(C/C=C/C#CC(C)(C)C)Cc1cccc2ccccc12 [Terbinafine]  187.2 Å²
14. N#Cc1ccc2c(c1)N(CCCN1CCC(O)CC1)c1ccccc1S2 [Periciazine]  186.4 Å²
15. CSc1ccc2c(c1)N(CCC1CCCCN1C)c1ccccc1S2 (stereo not given) [Thioridazine]  184.9 Å²
16. Cc1ccsc1C(=CCCN1CCC[C@@H](C(=O)O)C1)c1sccc1C [Tiagabine]  184.5 Å²
17. CN1CCN(CCCN2c3ccccc3Sc3ccc(Cl)cc32)CC1 [Prochlorperazine]  183.7 Å²
18. CCOC(=O)C1=C(C)NC(C)=C(C(=O)OC)C1c1cccc([N+](=O)[O-])c1 (stereo not given) [Nitrendipine]  182.2 Å²
19. CCC(=O)C(CC(C)N(C)C)(c1ccccc1)c1ccccc1 (stereo not given) [Methadone]  177.7 Å²
20. O=C1CN=C(c2ccccc2)c2cc(Cl)ccc2N1CC1CC1 [Prazepam]  174 Å²
21. Cc1cnc(NC(=O)C2=C(O)c3ccccc3S(=O)(=O)N2C)s1 [Meloxicam]  173.9 Å²
22. Cc1nccn1CC1CCc2c(c3cccc(O)c3n2C)C1=O (stereo not given) [Ondansetron-M 8-hydroxy]  173.7 Å²
23. Cc1ncc2n1-c1ccc(Cl)cc1C(c1ccccc1F)=NC2 [Midazolam]  172.8 Å²
24. O=C1C[C@@H]2OCC=C3CN4CC[C@]56c7ccccc7N1[C@H]5[C@H]2[C@H]3C[C@H]46 [Strychnine]  172 Å²
25. CN1C(C(=O)Nc2ccccn2)=C(O)c2ccccc2S1(=O)=O [Piroxicam]  170.9 Å²
26. COc1cc(Cc2cnc(N)nc2N)cc(OC)c1OC [Trimethoprim]  170.8 Å²
27. COc1ccc(CN(CCN(C)C)c2ccccn2)cc1 [Mepyramine]  169.6 Å²
28. COc1ccc2c3c1O[C@H]1C(=O)CC[C@@]4(O)[C@@H](C2)N(C)CC[C@]314 [Oxycodone]  168.3 Å²
29. CC(C)NCC(O)c1ccc(NS(C)(=O)=O)cc1 (stereo not given) [Sotalol]  167 Å²
30. CCN(C)C(=O)Oc1cccc([C@H](C)N(C)C)c1 [Rivastigmine]  165 Å²
31. CNCCC=C1c2ccccc2CCc2ccccc21 [Triptyline-M nor]  164.5 Å²
32. CN1CC[C@]23c4c5ccc(O)c4O[C@H]2[C@@H](O)C=C[C@H]3[C@H]1C5 [Morphine]  164 Å²
33. O=C1Nc2ccc(Cl)cc2C(c2ccccc2)=NC1O (stereo not given) [Oxazepam]  162.3 Å²
34. CNS(=O)(=O)Cc1ccc2[nH]cc(CCN(C)C)c2c1 [Sumatriptan]  162.1 Å²
35. CN1CCN=C(c2ccccc2)c2cc(Cl)ccc21 [Medazepam]  160.8 Å²
36. Nc1ccc2c(c1)C(c1ccccc1)=NCC(=O)N2 [Nitrazepam-M 7-amino]  158.1 Å²
37. CN(C)CCc1c[nH]c2cccc(OP(=O)(O)O)c12 [Psilocybine]  157.3 Å²
38. CC(C(=O)O)c1ccc(C(=O)c2ccccc2)s1 (stereo not given) [Tiaprofenic acid]  155.1 Å²
39. COC(=O)C(c1ccccc1)C1CCCCN1 (stereo not given) [Methylphenidate]  154.2 Å²
40. CC[C@@H](c1cccc(O)c1)[C@@H](C)CN(C)C [Tapentadol]  152.1 Å²
41. Cc1cc(NS(=O)(=O)c2ccc(N)cc2)no1 [Sulfamethoxazole]  151 Å²
42. c1cnc2cc3c(cc2n1)[C@@H]1CNC[C@H]3C1 [Varenicline]  151 Å²
43. CCOc1ccc(NC(C)=O)cc1 [Phenacetin]  139.4 Å²
44. Cc1ncc([N+](=O)[O-])n1CCO [Metronidazole]  132.4 Å²

conditions: [M+H-H2O]+; instrument: DT; stepped-field

In order of rising “collision cross section (N2)” value:
1. OCC1OC(OC2C(CO)OC(OC3C(CO)OC(OC4C(CO)OC(O)C(O)C4O)C(O)C3O)C(O)C2O)C(O)C(O)C1O (stereo not given) [(Hex)4]  234.7 Å²
2. OCC1OC(OC2C(CO)OC(OC3C(CO)OC(OC4C(CO)OC(OC5C(CO)OC(OC6C(CO)OC(OC7C(CO)OC(OC8C(CO)OC(O)C(O)C8O)C(O)C7O)C(O)C6O)C(O)C5O)C(O)C4O)C(O)C3O)C(O)C2O)C(O)C(O)C1O (stereo not given) [(Hex)8]  333.8 Å²
3. O=CC(OC1OC(CO)C(OC2OC(CO)C(O)C(O)C2O)C(OC2OC(CO)C(O)C(O)C2O)C1OC1OC(CO)C(O)C(O)C1O)C(OC1OC(CO)C(O)C(O)C1O)C(OC1OC(CO)C(O)C(O)C1O)C(COC1OC(CO)C(O)C(O)C1O)OC1OC(CO)C(O)C(O)C1O (stereo not given) [(Hex)9]  356.2 Å²

For `OCC1OC(OC2C(CO)OC(OC3C(CO)OC(OC4C(CO)OC(OC5C(CO)OC(OC6C(CO)OC(OC7C(CO)OC(OC8C(CO)OC(OC9C(CO)OC(OC%10C(CO)OC(OC%11C(CO)OC(OC%12C(CO)OC(O)C(O)C%12O)C(O)C%11O)C(O)C%10O)C(O)C9O)C(O)C8O)C(O)C7O)C(O)C6O)C(O)C5O)C(O)C4O)C(O)C3O)C(O)C2O)C(O)C(O)C1O` (stereo not given) [(Hex)12], the “collision cross section (N2)” value was 400.3 Å² and 422.9 Å².

same assay, conditions: [M+H]+; instrument: DT; stepped-field

In order of rising “collision cross section (N2)” value:
1. N=C(N)NCCC[C@H](NC(=O)[C@H](CCC(=O)O)NC(=O)CNC(=O)[C@@H](N)Cc1ccccc1)C(=O)O [FGER]  217.1 Å²
2. C[C@H](N)C(=O)N[C@@H](Cc1ccccc1)C(=O)N[C@@H](CC(=O)O)C(=O)N[C@@H](CCC(=O)O)C(=O)N[C@@H](CCCCN)C(=O)O [AFDEK]  238.3 Å²
3. CSCC[C@H](NC(=O)[C@H](C)N)C(=O)NCC(=O)N[C@@H](Cc1ccc(O)cc1)C(=O)N[C@@H](CCCNC(=N)N)C(=O)O [AMGYR]  245 Å²
4. CCC(C)[C@H](NC(=O)[C@H](CCC(N)=O)NC(=O)CN)C(=O)N[C@H](C(=O)NCC(=O)N[C@@H](CCCNC(=N)N)C(=O)O)C(C)C (stereo not given in full) [GQIVGR]  245.5 Å²
5. CC(C)C[C@H](NC(=O)[C@H](Cc1c[nH]cn1)NC(=O)[C@@H](N)CC(=O)O)C(=O)N[C@H](C(=O)NCC(=O)N[C@@H](CCCNC(=N)N)C(=O)O)C(C)C [DHLVGR]  249.4 Å²
6. CCC(C)[C@H](NC(=O)[C@H](CO)NC(=O)[C@H](C)NC(=O)[C@@H](N)CS)C(=O)N[C@@H](CCC(N)=O)C(=O)N[C@@H](CCCCN)C(=O)O (stereo not given in full) [CASIQK]  252.8 Å²
7. CC(C)C[C@H](NC(=O)[C@@H](NC(=O)CN)C(C)C)C(=O)N[C@@H](Cc1c[nH]cn1)C(=O)N[C@@H](C)C(=O)N[C@H](C(=O)N[C@@H](CCCCN)C(=O)O)C(C)C [GVLHAVK]  269.9 Å²
8. CCC(C)[C@H](NC(=O)[C@@H](NC(=O)CN)C(C)C)C(=O)N[C@@H](Cc1ccccc1)C(=O)N[C@@H](Cc1ccc(O)cc1)C(=O)N[C@@H](CCC(=O)O)C(=O)N[C@@H](CO)C(=O)N[C@@H](Cc1c[nH]cn1)C(=O)NCC(=O)N[C@@H](CCCCN)C(=O)O (stereo not given in full) [GVIFYESHGK]  332.9 Å²

In the case of `OC[C@H]1O[C@@H]2O[C@H]3[C@H](O)[C@@H](O)[C@@H](O[C@H]4[C@H](O)[C@@H](O)[C@@H](O[C@H]5[C@H](O)[C@@H](O)[C@@H](O[C@H]6[C@H](O)[C@@H](O)[C@@H](O[C@H]7[C@H](O)[C@@H](O)[C@@H](O[C@H]8[C@H](O)[C@@H](O)[C@@H](O[C@H]1[C@H](O)[C@H]2O)O[C@@H]8CO)O[C@@H]7CO)O[C@@H]6CO)O[C@@H]5CO)O[C@@H]4CO)O[C@@H]3CO` [Beta-Cyclodextrin], the “collision cross section (N2)” value is reported as 301.3 Å² and 319.6 Å².
In the case of `CCC(C)[C@H](NC(=O)[C@@H](N)CC(=O)O)C(=O)N[C@H](C(=O)NCC(=O)N[C@@H](C)C(=O)N[C@H](C(=O)N[C@@H](CC(C)C)C(=O)N[C@@H](CCCCN)C(=O)O)C(C)C)C(C)C` (stereo not given in full) [DIVGAVLK], the “collision cross section (N2)” value is reported as 291.8 Å² and 277.8 Å².

same assay, conditions: [M+K]+; instrument: DT; stepped-field

In order of falling “collision cross section (N2)” value:
1. OC[C@H]1O[C@@H]2O[C@H]3[C@H](O)[C@@H](O)[C@@H](O[C@H]4[C@H](O)[C@@H](O)[C@@H](O[C@H]5[C@H](O)[C@@H](O)[C@@H](O[C@H]6[C@H](O)[C@@H](O)[C@@H](O[C@H]7[C@H](O)[C@@H](O)[C@@H](O[C@H]8[C@H](O)[C@@H](O)[C@@H](O[C@H]1[C@H](O)[C@H]2O)O[C@@H]8CO)O[C@@H]7CO)O[C@@H]6CO)O[C@@H]5CO)O[C@@H]4CO)O[C@@H]3CO [Beta-Cyclodextrin]  320.3 Å²
2. OCC1OC(OC2C(CO)OC(OC3C(CO)OC(OC4C(CO)OC(O)C(O)C4O)C(O)C3O)C(O)C2O)C(O)C(O)C1O (stereo not given) [(Hex)4]  236.6 Å²

same assay, conditions: [M+Na-H2O]+; instrument: DT; stepped-field

With `OCC1OC(OC2C(CO)OC(OC3C(CO)OC(OC4C(CO)OC(O)C(O)C4O)C(O)C3O)C(O)C2O)C(O)C(O)C1O` (stereo not given) [(Hex)4] the “collision cross section (N2)” value was 234.8 Å².

In the case of `OCC1OC(OC2C(CO)OC(OC3C(CO)OC(OC4C(CO)OC(OC5C(CO)OC(OC6C(CO)OC(OC7C(CO)OC(OC8C(CO)OC(OC9C(CO)OC(OC%10C(CO)OC(OC%11C(CO)OC(OC%12C(CO)OC(O)C(O)C%12O)C(O)C%11O)C(O)C%10O)C(O)C9O)C(O)C8O)C(O)C7O)C(O)C6O)C(O)C5O)C(O)C4O)C(O)C3O)C(O)C2O)C(O)C(O)C1O` (stereo not given) [(Hex)12], the “collision cross section (N2)” value is reported as 390.6 Å² and 410 Å².

same assay, conditions: [M+Na]+; instrument: DT; stepped-field

In the case of `OCC1OC(OC2C(CO)OC(OC3C(CO)OC(OC4C(CO)OC(OC5C(CO)OC(OC6C(CO)OC(OC7C(CO)OC(OC8C(CO)OC(O)C(O)C8O)C(O)C7O)C(O)C6O)C(O)C5O)C(O)C4O)C(O)C3O)C(O)C2O)C(O)C(O)C1O` (stereo not given) [(Hex)8], the “collision cross section (N2)” value is reported as 320.9 Å² and 338.8 Å².
For `O=CC(OC1OC(CO)C(OC2OC(CO)C(O)C(O)C2O)C(OC2OC(CO)C(O)C(O)C2O)C1OC1OC(CO)C(O)C(O)C1O)C(OC1OC(CO)C(O)C(O)C1O)C(OC1OC(CO)C(O)C(O)C1O)C(COC1OC(CO)C(O)C(O)C1O)OC1OC(CO)C(O)C(O)C1O` (stereo not given) [(Hex)9], the “collision cross section (N2)” value was 340.5 Å² and 351.9 Å².

In the case of `OC[C@H]1O[C@@H]2O[C@H]3[C@H](O)[C@@H](O)[C@@H](O[C@H]4[C@H](O)[C@@H](O)[C@@H](O[C@H]5[C@H](O)[C@@H](O)[C@@H](O[C@H]6[C@H](O)[C@@H](O)[C@@H](O[C@H]7[C@H](O)[C@@H](O)[C@@H](O[C@H]8[C@H](O)[C@@H](O)[C@@H](O[C@H]1[C@H](O)[C@H]2O)O[C@@H]8CO)O[C@@H]7CO)O[C@@H]6CO)O[C@@H]5CO)O[C@@H]4CO)O[C@@H]3CO` [Beta-Cyclodextrin], the “collision cross section (N2)” value is reported as 319.7 Å².
